{"source": "patent US8008354B2", "about": "“Death receptor sensitizing compounds and methods of use therefor” (Burnham Institute for Medical Research, priority 2006, dated 2011)", "key": {"[1]": {"tested_on": "E1A-transformed wild-type (WT) and caspase 8-/- MEFs", "experiment": "MTS viability of wild-type and caspase 8-/- MEFs in suspension conditions", "format": "cell-based", "settings": "ten hours", "protocol": "(§1) FIG. 15. 5809354 sensitizes cells to anoikis through a caspase 8 dependent mechanism. (A) PPC-1 cells (5×10^4) were cultured under suspension conditions overnight and then treated with 5809354 in the presence or absence of the pan-caspase inhibitor z-VAD-fink (100 μM). Thirty hours after incubation, anoikis was determined by flow cytometry to detect cell surface annexin V expression and PI uptake. Data represents the mean±SEM percent of viable cells or colonies compared to untreated controls. (B) PPC-1 cells (5×10^4) were cultured in suspension conditions overnight and then treated with 5809354 (60 μM). At increasing times after treatment, caspase activation was detected with FITC-labeled peptides that bind preferentially and irreversibly to caspase 3/7, 8, or 9. Caspase activation was monitored by flow cytometry to quantify the percentage of fluorescently labeled cells. […] At increasing times after incubation, total cellular protein was isolated and analyzed by SDS-PAGE immunoblotting using anti-caspase 8 and anti-actin antibodies. * indicates cleaved caspase 8. […] Thirty hours after incubation, apoptosis was measured by cell surface annexin V expression and PI uptake. […] Ten hours after incubation, cell viability was measured using the MTS assay. […] EGFP expression and nuclear morphology were analyzed by fluorescence microscopy. […]"}, "[2]": {"tested_on": "caspase 8", "experiment": "Caspase activation in PPC-1 cells (FITC-labeled peptides, caspase 8 immunoblot)", "format": "cell-based, human", "settings": "60 μM", "protocol": "as §1"}}}
{"substance": "4-(4-chloro-2-methylphenoxy)-N-hydroxybutanamide [compound 5809354]", "values": [{"measurement": "anoikis of caspase 8-deficient MEFs compared to wild-type", "setting": "[1]", "result": "resistant"}, {"measurement": "sequence of caspase activation", "setting": "[2]; suspension conditions", "result": "Active caspase 8 was detected prior to activation of caspases 3/7 and 9"}, {"measurement": "caspase 8 activation by immunoblot", "setting": "[2]; suspension versus adherent conditions", "result": "preferentially activated caspase 8 in cells cultured under suspension but not adherent conditions"}]}
